Measurements published in ChEMBL document CHEMBL1201862, “PubChem BioAssay data set” (2004).
The source made the active and inactive calls.

Experiments:
[1] = biological target: Peroxisome proliferator-activated receptor gamma/Nuclear receptor coactivator 2 (Homo sapiens, UniProt P37231); assay type: functional;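 further: agonist potency for raising coactivator recruitment to the receptor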
[2] = biological target: Peroxisome proliferator-activated receptor gamma/Nuclear receptor coactivator 1 (Homo sapiens, UniProt P37231); assay type: functional;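 further: agonist potency as compounds enhance coactivator SRC-1 recruitment to PPARgamma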
Sequence of Peroxisome proliferator-activated receptor gamma/Nuclear receptor coactivator 1 (P37231 whole entry): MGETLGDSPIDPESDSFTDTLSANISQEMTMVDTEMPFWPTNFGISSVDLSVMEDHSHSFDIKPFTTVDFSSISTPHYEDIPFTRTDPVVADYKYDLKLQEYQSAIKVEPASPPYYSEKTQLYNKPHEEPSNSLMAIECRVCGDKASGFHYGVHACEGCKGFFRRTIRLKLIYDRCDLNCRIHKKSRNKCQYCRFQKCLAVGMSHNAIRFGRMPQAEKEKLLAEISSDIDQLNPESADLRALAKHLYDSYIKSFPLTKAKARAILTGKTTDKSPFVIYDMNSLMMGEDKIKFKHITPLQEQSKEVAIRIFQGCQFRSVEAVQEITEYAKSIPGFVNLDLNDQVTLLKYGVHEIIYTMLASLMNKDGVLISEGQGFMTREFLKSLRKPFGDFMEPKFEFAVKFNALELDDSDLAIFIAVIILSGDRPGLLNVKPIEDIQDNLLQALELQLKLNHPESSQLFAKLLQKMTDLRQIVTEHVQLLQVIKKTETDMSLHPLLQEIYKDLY
Sequence of Peroxisome proliferator-activated receptor gamma/Nuclear receptor coactivator 1 (Q15788 whole entry, further chain): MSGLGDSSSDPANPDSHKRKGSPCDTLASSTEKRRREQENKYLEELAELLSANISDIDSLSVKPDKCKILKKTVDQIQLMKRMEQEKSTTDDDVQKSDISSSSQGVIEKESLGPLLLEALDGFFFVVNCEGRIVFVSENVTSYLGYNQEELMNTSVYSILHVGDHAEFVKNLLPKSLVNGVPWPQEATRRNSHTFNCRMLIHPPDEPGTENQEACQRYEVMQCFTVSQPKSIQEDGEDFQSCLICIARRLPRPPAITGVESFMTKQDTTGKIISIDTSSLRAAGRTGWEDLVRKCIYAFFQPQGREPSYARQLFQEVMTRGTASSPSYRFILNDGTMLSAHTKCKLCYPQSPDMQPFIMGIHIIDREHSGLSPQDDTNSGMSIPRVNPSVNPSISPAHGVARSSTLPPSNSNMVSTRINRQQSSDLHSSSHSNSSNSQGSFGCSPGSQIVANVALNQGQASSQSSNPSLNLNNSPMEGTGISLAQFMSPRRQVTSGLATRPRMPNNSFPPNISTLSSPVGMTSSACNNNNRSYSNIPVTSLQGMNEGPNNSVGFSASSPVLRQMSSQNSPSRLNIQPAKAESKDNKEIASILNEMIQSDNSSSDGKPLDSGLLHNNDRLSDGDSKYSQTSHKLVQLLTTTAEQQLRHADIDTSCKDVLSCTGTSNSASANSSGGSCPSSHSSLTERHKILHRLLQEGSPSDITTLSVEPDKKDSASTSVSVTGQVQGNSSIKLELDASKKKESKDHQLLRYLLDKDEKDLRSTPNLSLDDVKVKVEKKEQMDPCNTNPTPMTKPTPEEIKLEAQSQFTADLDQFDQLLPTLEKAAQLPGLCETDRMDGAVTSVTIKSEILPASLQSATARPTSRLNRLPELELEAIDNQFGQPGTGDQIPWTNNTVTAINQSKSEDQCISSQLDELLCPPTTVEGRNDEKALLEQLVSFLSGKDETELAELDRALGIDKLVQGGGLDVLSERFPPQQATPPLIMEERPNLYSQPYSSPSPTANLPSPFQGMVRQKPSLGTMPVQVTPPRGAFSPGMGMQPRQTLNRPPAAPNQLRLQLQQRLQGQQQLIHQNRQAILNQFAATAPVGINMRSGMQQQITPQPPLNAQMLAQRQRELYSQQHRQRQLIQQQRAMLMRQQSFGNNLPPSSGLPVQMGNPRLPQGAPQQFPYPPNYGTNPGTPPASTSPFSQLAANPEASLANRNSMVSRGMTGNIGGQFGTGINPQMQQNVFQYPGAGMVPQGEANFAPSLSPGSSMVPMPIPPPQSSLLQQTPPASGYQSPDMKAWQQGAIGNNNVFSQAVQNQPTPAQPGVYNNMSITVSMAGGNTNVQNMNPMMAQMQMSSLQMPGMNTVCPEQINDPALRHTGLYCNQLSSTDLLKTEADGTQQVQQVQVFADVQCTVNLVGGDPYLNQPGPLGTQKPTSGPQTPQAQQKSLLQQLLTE

[3] = biological target: Peroxisome proliferator-activated receptor gamma/Nuclear receptor coactivator 3 (Homo sapiens, UniProt P37231); assay type: functional;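 further: agonist potency for raising coactivator recruitment to the receptor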
[4] = cytotoxicity in HEK-293T cells, dose response, cytotoxicity control for BCR NF-kB inhibitor project, luminescence, B-cell screen hits (AID 489021); assay type: functional, cell-based;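 further: HEK-293T cells carrying an NF-kB luciferase reporter; cells exposed to compound for about 14 hours before viability readout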
[5] = system: Streptococcus sp. 'group A'; test: growth inhibition of control SK(-) GAS strain, dose response, counter-screen for streptokinase expression inhibitor project, luminescence, kanamycin, BacTiterGlo, confirmation (AID 1900); assay type: functional, organism-based
[6] = system: Streptococcus; test: Group A Streptococcus viability loss, dose response, counter-screen for streptokinase expression inhibitor project, luminescence, BacTiterGlo (AID 1915); assay type: functional, organism-based;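 further: potency for reduction of bacterial viability or growth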
[7] = biological target: T1, Streptokinase A (Streptococcus pyogenes serotype M1, UniProt P10520); test: S. pyogenes streptokinase expression inhibitors, potency, dose response, plasminogen activation absorbance, OD405 (AID 1914); assay type: functional, Streptococcus pyogenes M1 GAS;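 further: secreted streptokinase activity via plasminogen activation per viability signal from cell pellet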
T1 sequence (P10520 whole entry): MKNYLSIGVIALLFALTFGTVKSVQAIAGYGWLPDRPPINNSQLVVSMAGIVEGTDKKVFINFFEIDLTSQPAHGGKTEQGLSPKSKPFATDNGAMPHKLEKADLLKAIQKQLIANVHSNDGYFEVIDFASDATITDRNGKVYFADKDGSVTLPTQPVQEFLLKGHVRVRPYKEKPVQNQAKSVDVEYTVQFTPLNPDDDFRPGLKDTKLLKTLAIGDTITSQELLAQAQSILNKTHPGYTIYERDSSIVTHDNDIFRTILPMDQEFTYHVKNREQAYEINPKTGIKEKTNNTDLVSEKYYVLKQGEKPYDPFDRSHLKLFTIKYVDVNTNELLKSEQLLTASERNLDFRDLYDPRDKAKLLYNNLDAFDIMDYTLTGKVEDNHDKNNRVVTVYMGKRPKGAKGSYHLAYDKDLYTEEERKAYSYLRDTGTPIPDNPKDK

[8] = biological target: T2, Neuropeptide Y receptor type 2 (Homo sapiens, UniProt P49146); test: NPY-Y2 antagonist potency, selectivity check, dose response, counter-screen for NPY-Y1 antagonist project, cell-based (AID 1278); assay type: functional
T2 sequence (P49146 whole entry): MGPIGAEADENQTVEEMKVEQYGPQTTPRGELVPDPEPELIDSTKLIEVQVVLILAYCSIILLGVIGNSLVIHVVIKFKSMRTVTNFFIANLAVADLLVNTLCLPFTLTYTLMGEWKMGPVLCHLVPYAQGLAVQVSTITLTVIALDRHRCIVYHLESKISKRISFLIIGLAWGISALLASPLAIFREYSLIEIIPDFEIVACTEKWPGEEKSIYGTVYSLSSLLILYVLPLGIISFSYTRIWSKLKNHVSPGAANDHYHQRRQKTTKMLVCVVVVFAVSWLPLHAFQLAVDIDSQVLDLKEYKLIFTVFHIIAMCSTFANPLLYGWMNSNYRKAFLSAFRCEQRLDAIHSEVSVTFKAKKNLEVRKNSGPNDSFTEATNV

[9] = cytotoxicity in HPDE-C7 cells, cell-based, fluorescence, HTS (AID 430); assay type: functional; conditions: Homo sapiens
[10] = cytotoxicity in KRAS-transformed pancreatic duct cells, primary screen, cell-based, fluorescence, HTS (AID 431); assay type: functional; conditions: Homo sapiens;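 further: cell line used: HPDE-C7K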
[11] = biological target: T3, Coagulation factor XII (Homo sapiens, UniProt P00748); assay type: functional;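 further: activated factor XIIa alpha cleaving a fluorogenic AMC peptide substrate; inhibitor potency from loss of enzyme activity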
T3 sequence (P00748 whole entry): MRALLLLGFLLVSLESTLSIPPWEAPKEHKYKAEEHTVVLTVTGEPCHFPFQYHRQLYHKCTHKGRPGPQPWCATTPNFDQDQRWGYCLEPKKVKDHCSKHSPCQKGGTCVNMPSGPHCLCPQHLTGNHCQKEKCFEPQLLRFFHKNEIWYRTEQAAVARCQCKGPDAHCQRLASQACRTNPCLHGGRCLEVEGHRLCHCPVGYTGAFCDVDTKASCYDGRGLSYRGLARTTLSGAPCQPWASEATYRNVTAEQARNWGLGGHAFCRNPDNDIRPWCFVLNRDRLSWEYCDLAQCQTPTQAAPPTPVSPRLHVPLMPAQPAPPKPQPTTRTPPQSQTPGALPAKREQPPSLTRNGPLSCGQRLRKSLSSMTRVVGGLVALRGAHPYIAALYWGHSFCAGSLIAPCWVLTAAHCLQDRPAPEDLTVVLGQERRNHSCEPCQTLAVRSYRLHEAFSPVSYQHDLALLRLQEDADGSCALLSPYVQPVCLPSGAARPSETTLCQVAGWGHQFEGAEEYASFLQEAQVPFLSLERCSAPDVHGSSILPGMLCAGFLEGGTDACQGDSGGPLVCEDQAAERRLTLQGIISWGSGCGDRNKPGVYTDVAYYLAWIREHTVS

[12] = biological target: T4, Neuropeptide Y receptor type 1 (Homo sapiens, UniProt P25929); test: NPY-Y1 receptor antagonist potency, dose response, cell-based (AID 1277); assay type: functional
T4 sequence (P25929 whole entry): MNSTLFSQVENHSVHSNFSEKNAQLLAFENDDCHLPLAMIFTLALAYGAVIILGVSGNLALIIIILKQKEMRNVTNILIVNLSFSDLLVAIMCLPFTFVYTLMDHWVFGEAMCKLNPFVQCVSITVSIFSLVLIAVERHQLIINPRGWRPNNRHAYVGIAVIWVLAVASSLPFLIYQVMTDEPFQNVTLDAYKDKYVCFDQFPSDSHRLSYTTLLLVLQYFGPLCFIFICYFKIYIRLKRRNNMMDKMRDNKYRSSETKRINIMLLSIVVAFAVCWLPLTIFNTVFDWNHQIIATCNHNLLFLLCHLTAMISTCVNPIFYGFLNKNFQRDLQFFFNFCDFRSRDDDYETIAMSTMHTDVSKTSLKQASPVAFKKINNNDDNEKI

[13] = control 3'UTR Renilla luciferase suppression, dose response, counter-screen for Shn3 inhibitor project, cell-based, Clone20-Shn3RL, cherry-picked (AID 624133); assay type: functional
[14] = Shn3 3'UTR reporter inhibitors, dose response, cell-based, Clone20 osteoblasts, firefly luciferase, cherry-picked (AID 624132); assay type: functional;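 further: firefly luciferase luminescence from reporter carrying the Shn3 3'UTR in osteoblasts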
[15] = HEp-2 cell cytotoxicity, dose response, cytotoxicity control for RSV inhibitor project, HTS (AID 2410); assay type: functional; conditions: human respiratory syncytial virus
[16] = HepG2 cell cytotoxicity, dose response, cytotoxicity control for Shn3 inhibitor project, CellTiter-Glo, cherry-picked (AID 624134); assay type: functional, cell-based
[17] = system: HEK293; test: inhibitors of LMP1-driven NF-kB reporter, dose response, cell-based, HEK293, luciferase, cherry-pick (AID 588343); assay type: functional; conditions: Homo sapiens
[18] = system: HT-1080; test: cytotoxicity in HT1080 fibrosarcoma cells, cell-based, fluorescence readout (AID 620); assay type: functional; conditions: Homo sapiens
[19] = biological target: Luciferin 4-monooxygenase (Photinus pyralis, UniProt P08659); test: Counter Screen for Luciferase-based Assay Positives. [Related pubchem assays: 620, 618, 411 ]
Sequence of Luciferin 4-monooxygenase (P08659 whole entry): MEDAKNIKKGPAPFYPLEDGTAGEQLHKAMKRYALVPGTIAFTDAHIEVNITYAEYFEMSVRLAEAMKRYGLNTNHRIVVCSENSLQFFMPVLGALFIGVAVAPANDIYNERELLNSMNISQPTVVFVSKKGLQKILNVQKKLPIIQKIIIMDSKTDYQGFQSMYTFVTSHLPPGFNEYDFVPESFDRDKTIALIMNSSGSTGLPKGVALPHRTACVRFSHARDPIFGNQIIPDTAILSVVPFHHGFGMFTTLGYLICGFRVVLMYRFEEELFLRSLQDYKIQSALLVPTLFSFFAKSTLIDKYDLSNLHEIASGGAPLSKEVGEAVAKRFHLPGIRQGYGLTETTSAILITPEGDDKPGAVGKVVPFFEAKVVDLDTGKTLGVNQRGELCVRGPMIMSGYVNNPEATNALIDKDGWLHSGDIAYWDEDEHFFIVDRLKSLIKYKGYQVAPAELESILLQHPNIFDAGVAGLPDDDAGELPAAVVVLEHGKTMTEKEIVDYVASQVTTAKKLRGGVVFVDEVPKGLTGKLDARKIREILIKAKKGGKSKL

[20] = biological target: T5, Replicative DNA helicase DnaB (Mycobacterium tuberculosis, UniProt P9WMR3); test: DnaB intein splicing inhibitors, dose response, biochemical, cell-free fluorescence (AID 449749); assay type: functional
T5 sequence (P9WMR3 whole entry): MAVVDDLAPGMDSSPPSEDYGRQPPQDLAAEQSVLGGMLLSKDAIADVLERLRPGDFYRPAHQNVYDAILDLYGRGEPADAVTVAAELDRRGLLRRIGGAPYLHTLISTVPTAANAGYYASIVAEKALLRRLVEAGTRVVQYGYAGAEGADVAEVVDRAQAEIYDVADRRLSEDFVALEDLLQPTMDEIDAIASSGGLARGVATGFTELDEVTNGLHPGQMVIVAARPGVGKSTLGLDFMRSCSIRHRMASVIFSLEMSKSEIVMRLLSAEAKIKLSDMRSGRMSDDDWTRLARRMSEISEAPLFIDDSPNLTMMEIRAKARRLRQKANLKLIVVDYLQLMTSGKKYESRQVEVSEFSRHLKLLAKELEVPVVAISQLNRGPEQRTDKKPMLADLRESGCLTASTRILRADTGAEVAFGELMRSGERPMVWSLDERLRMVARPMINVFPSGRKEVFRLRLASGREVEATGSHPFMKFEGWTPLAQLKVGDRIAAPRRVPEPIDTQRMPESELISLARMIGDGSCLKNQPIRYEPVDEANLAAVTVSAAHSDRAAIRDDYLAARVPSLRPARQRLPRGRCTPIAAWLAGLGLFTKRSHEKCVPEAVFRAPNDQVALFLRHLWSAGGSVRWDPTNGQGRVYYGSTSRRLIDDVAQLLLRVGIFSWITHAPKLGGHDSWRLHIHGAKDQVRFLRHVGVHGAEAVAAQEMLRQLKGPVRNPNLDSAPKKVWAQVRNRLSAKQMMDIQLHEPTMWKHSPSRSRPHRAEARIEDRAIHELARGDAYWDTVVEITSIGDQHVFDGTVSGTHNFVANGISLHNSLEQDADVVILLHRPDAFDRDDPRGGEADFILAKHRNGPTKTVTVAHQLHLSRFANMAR

[21] = Luminescence Cell-Based Dose Retest to Confirm Inhibitors of Cancer Stem Cells. [Related pubchem assays (depositor defined):AID2717, AID2721]; assay type: functional; conditions: Homo sapiens
[22] = cells; assay type: functional
[23] = biological target: T6, Protein RecA (Mycobacterium tuberculosis, UniProt P9WHJ3); test: Fluorescence Cell-Free Homogeneous Dose Retest to Identify Inhibitors of RecA-Intein Splicing Activity. [Related pubchem assays (depositor defined):AID2097, AID2223, AID489010, AID492950]; assay type: functional
T6 sequence (P9WHJ3 whole entry): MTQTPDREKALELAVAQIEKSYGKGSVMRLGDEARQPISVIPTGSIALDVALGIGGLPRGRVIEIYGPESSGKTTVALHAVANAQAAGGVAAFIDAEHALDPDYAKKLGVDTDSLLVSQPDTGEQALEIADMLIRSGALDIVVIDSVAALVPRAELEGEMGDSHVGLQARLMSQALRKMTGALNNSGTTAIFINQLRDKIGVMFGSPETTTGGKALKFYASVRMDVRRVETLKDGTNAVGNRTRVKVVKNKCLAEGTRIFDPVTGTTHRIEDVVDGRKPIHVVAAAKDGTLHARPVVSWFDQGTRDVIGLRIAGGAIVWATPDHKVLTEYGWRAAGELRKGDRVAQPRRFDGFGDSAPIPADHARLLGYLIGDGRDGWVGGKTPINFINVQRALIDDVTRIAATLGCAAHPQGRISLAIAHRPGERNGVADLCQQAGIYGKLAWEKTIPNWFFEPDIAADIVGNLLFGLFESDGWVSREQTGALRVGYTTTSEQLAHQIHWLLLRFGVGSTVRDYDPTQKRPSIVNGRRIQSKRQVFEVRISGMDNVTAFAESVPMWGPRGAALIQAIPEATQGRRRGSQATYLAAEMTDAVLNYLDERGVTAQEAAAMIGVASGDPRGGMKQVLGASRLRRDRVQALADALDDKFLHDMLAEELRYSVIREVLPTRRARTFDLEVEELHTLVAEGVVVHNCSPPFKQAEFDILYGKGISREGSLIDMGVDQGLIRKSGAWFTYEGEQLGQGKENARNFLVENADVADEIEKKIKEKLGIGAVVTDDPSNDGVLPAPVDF

[24] = growth suppression of PTEN-null colon cells, dose response, cell-based, HCT116 PTEN knockout (AID 1047); assay type: functional;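 further: HCT116 colon tumor cells with PTEN knocked out; cells exposed to compound for 60 hours before readout; potency for loss of cell viability measured by luminescence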
[25] = growth suppression of beta-catenin-knockout colon cells, dose response, cell-based, HCT116, human colon tumor (AID 1045); assay type: functional;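 further: HCT116 colon tumor cells with beta catenin knocked out; cells exposed to compound for 60 hours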

Sequence of Peroxisome proliferator-activated receptor gamma/Nuclear receptor coactivator 2 (P37231 whole entry): as the sequence (P37231 whole entry) above
Sequence of Peroxisome proliferator-activated receptor gamma/Nuclear receptor coactivator 2 (Q15596 whole entry, further chain): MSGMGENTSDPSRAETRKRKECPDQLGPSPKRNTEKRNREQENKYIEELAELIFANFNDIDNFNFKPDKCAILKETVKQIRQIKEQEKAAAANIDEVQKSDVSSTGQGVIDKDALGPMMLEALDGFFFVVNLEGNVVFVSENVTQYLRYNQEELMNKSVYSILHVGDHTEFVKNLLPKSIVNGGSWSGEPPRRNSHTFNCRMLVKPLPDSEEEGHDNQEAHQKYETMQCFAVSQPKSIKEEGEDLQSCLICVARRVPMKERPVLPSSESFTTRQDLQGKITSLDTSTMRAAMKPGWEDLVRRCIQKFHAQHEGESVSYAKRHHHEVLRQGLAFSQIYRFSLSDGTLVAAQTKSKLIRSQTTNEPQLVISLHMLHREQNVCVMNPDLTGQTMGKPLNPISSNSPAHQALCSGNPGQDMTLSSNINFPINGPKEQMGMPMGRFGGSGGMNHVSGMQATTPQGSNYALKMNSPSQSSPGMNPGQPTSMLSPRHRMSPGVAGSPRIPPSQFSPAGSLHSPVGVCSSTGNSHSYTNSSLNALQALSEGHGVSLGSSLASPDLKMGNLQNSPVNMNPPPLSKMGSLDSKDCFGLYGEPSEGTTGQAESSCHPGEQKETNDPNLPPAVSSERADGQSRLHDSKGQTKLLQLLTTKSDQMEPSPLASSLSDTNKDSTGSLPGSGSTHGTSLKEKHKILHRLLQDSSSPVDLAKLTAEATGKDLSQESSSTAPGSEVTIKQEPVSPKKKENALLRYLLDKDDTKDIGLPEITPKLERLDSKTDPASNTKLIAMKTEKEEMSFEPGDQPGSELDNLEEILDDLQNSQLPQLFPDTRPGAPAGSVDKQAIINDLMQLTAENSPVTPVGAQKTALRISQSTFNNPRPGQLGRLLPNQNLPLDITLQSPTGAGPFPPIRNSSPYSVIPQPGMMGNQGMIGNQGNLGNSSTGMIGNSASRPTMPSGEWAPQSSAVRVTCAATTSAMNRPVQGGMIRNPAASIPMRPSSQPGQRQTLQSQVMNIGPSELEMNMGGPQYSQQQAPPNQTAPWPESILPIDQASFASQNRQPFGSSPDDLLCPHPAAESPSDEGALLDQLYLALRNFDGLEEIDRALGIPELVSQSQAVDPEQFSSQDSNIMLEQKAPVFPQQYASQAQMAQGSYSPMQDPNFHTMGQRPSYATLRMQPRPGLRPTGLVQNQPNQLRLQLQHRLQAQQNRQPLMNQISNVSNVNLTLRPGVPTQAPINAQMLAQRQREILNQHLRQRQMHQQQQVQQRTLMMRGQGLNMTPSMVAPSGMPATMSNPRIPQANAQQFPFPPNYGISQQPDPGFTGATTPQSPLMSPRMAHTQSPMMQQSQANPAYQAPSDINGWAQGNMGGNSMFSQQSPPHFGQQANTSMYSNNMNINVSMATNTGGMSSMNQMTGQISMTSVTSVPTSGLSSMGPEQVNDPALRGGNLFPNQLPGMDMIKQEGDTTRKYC

SMILES: CS(=O)(=O)N(CC(=O)NCc1ccncc1)Cc1ccc(Cl)cc1
- EC50 [1]: > 79.4 µM (not active)
- EC50 [2]: > 79.4 µM (not active)
- EC50 [3]: > 79.4 µM (not active)

SMILES: CC(=O)NC1=NC(=O)/C(=C/c2cc(C)n(-c3ccc(NC(C)=O)cc3)c2C)S1
- EC50 [1]: > 79.4 µM (not active)
- EC50 [2]: > 79.4 µM (not active)
- EC50 [3]: > 79.4 µM (not active)

SMILES: CCCCCC/C=C/c1ccc(OC)c([C@H]2[C@H]3C=CC[C@@H](C)[C@@H]3C(=O)N2Cc2ccccc2)c1
- IC50 [4]: > 80 µM (inactive)

SMILES: CC(NC(=O)Nc1nnc(C(F)(F)F)s1)(C(F)(F)F)C(F)(F)F
- EC50 [5]: 3.54 µM (active)
- EC50 [6]: 7.84 µM (active)
- EC50 [7]: > 150 µM (not active)
- IC50 [8]: > 35 µM (not active)
- EC50 [9]: 8.76 µM (active)
- EC50 [10]: 14.4 µM (active)
- IC50 [11]: > 50 µM (inactive)
- IC50 [12]: > 35 µM (not active)

SMILES: CC(C)(C)n1nnnc1C(c1ccc(C(F)(F)F)cc1)N(Cc1ccccc1)Cc1ccco1 (configuration not stated)
- AC50 [13]: 6.74 µM (active)
- IC50 [8]: > 35 µM (not active)
- AC50 [14]: 4.74 µM (active)
- CC50 [15]: 9.91 µM (active)
- IC50 [12]: > 35 µM (not active)
- AC50 [16]: 44.1 µM (active)

SMILES: O=C(CN1C(=O)c2ccccc2S1(=O)=O)c1ccccc1
- AC50 [17]: 1.36 µM (active)
- EC50 [18]: > 50 µM (not active)
- EC50 [19]: > 100 µM (not active)

SMILES: O=C(Nc1ccc(NC(=O)c2ccco2)nc1)c1ccccn1
- EC50 [18]: > 50 µM (not active)
- EC50 [19]: 9.44 µM (active)

SMILES: Cc1n[nH]c2c1C(c1ccc(-c3ccc(Cl)cc3)o1)C(C#N)=C(N)O2 (configuration not stated)
- EC50 [1]: > 79.4 µM (not active)
- AC50 [20]: 41.8 µM (active)
- AC50 [21]: 6.86 µM (active)
- EC50 [2]: > 79.4 µM (not active)
- IC50 [22]: 39.7 µM (active)
- EC50 [23]: 28.6 µM (active)
- EC50 [24]: 10.6 µM (active)
- EC50 [25]: 9.79 µM (active)
- EC50 [3]: > 79.4 µM (not active)

SMILES: O=C(C1CCC1)N1CCN(S(=O)(=O)c2ccc([N+](=O)[O-])cc2)CC1
- IC50 [4]: > 80 µM (inactive)

SMILES: COc1ccc(/C=N\NC(=O)c2sccc2C)cc1Cn1nc(C)cc1C
- IC50 [4]: > 80 µM (inactive)
